Data: patent US20060229256A1, “Enternal administration of arginine and glutamine for abnormal vascular proliferation” (Bristol-Myers Squibb Company, priority 2003, published 2006)
Several values for one entry are separate records, joined by “and”; a condition that tells them apart may be missing. Equal entries are not always repeated.

How the values were obtained:
[1] = test system: neonatal mouse model of oxygen-induced retinopathy; assay: Neonatal mouse model of oxygen-induced retinopathy, intra-peritoneal injection, pre-retinal nuclei count and retinal flat mounts; assay type: in vivo; settings: for reduction in preretinal nuclei / preretinal vascularization: 5 g/kg/d intra-peritoneal, twice daily, P12-P17, versus vehicle
Procedure: (§1) In the neonatal mouse model of oxygen-induced retinopathy, 7-day old mice were placed with their nursing dams in a 75% oxygen atmosphere for 5 days. (Smith et al., Invest Ophthalmol Vis Sci., 35(1):101-111 (1994). Mouse pups received twice daily intra-peritoneal injections (50 μl) starting on postnatal day 12 (P12) and continuing through postnatal day 17 (P17). In one experiment, injections included vehicle (0.9% sodium chloride) and the test compounds Ala-gly (5 g/kg/d), Arg-gln dipeptide (5 g/kg/d) and in a second experiment, different doses of Arg-gln (1.0, 2.5 and 5 g/kg/d) were tested.
(§2) After the fifth day following return to normoxia (P17), the animals were euthanized by injection of a lethal dose of a combination of ketamine (70 mg/kg body weight) and xylazine (15 mg/kg body weight) followed by cervical dislocation. The eyes were removed and fixed in 4% paraformaldehyde, embedded in paraffin, and sectioned as previously described. (Smith et al., Id.) Pre-retinal nuclei were counted by masked observers. Efficacy of treatment was calculated as the percent average nuclei per section in the eyes of Arg-Gln treated animals versus control animals.
All data represent the mean±SEM. ANOVA was used to evaluate differences among groups, and individual contrasts were done using Student t-tests with Bonferroni correction was used to determine the significance between groups.

VEGF mRNA = VEGF mRNA in retina of oxygen-induced retinopathy mice (real-time RT-PCR); assay type: in vivo, mouse; settings: 5 g/kg/d parenteral, day 5 after removal from high oxygen, P=0.007
Procedure: as §1
For total RNA isolations from retina the animals were sacrificed and the eyes removed. The retina were then dissected away from the eye and stored in RNAlater® buffer (Ambion, Austin, Tex.) at 4° C. for subsequent isolation of protein or RNA.
VEGF protein concentration was determined from isolated mouse retinas using the Quantikine® Human VEGF Immunoassay ELISA kit (R&D Systems, Minneapolis, Minn.). Pups were treated with the 5 g/kg/d dose of dipeptide and at varying time points after the pups were removed from oxygen on day 12. Eyes were enucleated at 0.5, 1 and 5 days post removal from high oxygen (n=14 eyes for each data point). Vehicle treated animals were compared to dipeptide-treated animals. […]

[2] = test system: neonatal mouse model of oxygen-induced retinopathy; assay: Neonatal mouse model of oxygen-induced retinopathy, gavage (enteral) administration, pre-retinal nuclei count; assay type: in vivo; settings: gavage, 1, 2.5 and 5 gm/kg·day, P12-P17, versus vehicle; dose/response, highest effectiveness at 5 gm/kg·day
From the text: In the neonatal mouse model of oxygen-induced retinopathy, 7-day old mice were placed with their nursing dams in a 75% oxygen atmosphere for 5 days. Mouse pups received twice a day gavage feedings of dipeptide or control solution (50 microliter) starting on postnatal day 12 (P12) and continuing through postnatal day 17 (P17). Gavage feeds included vehicle (0.9% sodium chloride) and the test compounds and different doses of Arg-Gln (1.0, 2.5 and 5 gm/kg/d). The daily dosage of the dipeptide was divided evenly between the two daily gavage feedings.
as §2, with “sectioned.” for “sectioned as previously described. (Smith et al., Id.)”

[3] = test system: vascular endothelial cell growth factor (VEGF) in human retinal pigment epithelial cells (hRPE); assay: VEGF secretion by human retinal pigment epithelial cells (VEGF ELISA of culture medium); assay type: cell-based
Procedure: Human eyes were obtained from the National Disease Resource Interchange within 36 h of death. hRPE cells were prepared and maintained as described by Grant et al., in Curr. Eye Res., 9(4):323-335 (1990), and Enzmann et al., in Transpl Immunol, March 7(1): 9-14 (1999). For cell culture experiments, hRPE from passages 3-5 were used. All tissue culture media was purchased from Mediatech, Inc., Herndon, Fla. hRPE cultures were placed in glutamine-free medium for 24 hrs and then were exposed either to 0, 0.5, 1, 2.5 or 5 mg/ml of Arg-gln dipeptide for 48 hrs. At the end of 48 hrs, VEGF content of the culture medium containing the hRPE cells was measured using the Quantikine® Human VEGF Immunoassay ELISA kit (R&D Systems, Minneapolis, Minn.).

| Substance | effect on preretinal nuclei, all doses ([1]; 1.0, 2.5 and 5.0 g/kg/d intra-peritoneal, five days of treatment, P<0.00001) | effect on preretinal nuclei at the lowest dose tested (FIG. 2) ([1]; 1 gm/kg·day intra-peritoneal, P12-P17) | reduction in preretinal nuclei / preretinal vascularization [1] | reduction in preretinal nuclei / preretinal vascularization ([1]; listed as Arg-gln dipeptide) [%] | retinal flat mounts (fluorescently labeled dextran): neovascular tufts and vascular leakage ([1]; Arg-gln treated pups compared to control dipeptide Ala-gly treated pups) | VEGF mRNA in retina versus vehicle-treated pups (VEGF mRNA) | VEGF mRNA in retina versus vehicle-treated pups (VEGF mRNA; listed as Arg-gln dipeptide) | average nuclei per section in the eyes (FIG. 4) [2] | effect on VEGF secretion as a function of the level of Arg-gln (FIG. 1) ([3]; 0-5 mg/ml, 48 hrs) | decrease in soluble VEGF expression into the culture medium ([3]; 1.5 mM Arg-gln, 48 hrs exposure after 24 hrs in glutamine-free medium, P=0.002) [%] |
| --- | --- | --- | --- | --- | --- | --- | --- | --- | --- | --- |
| arginyl-glutamine dipeptide [Arg-gln] | significant reduction | significant reduction | ~80% and 82±7% | 80 | reduced neovascular tufts and vascular leakage | significant reduction | much lower | decreased at all levels of administration | statistically significant dose-dependent decrease | 52.3±6.2 |
| Ala-gly [reference compound] |  |  | 2±5% |  |  |  |  |  |  |  |
